What was measured:
Type in all cases: in vivo
[1] = system: Puccinia recondita f. Sp. Tritici; test: Puccinia recondita f. sp. tritici / wheat / preventative (brown rust on wheat), PUCCTRZ/ff-pr; design: key: % disease control relative to untreated check; settings: 0.20%, average of three replicates
Protocol: (§1) In general, active ingredient is formulated (SC, SL) and just before spraying the formulations are mixed with water and ultrasonically agitated in order to achieve homogeneous distribution. Spray solutions are made up in water. Adjuvants are added as tank mix to the spray solution just before application. Foliar application is at 200 L/ha in an application device spraying with a single nozzle (type Lechler) 60 cm above the plants. Preventative tests are performed as 1 or 2 day preventative applications, i.e. plants are treated with the compounds 1 or 2 days prior to artificial inoculation with fungal spores, whereas for curative tests the inoculation is carried out prior to application. A single evaluation of disease level is made 5 to 48 days after inoculation, depending on the pathosystem. Disease control relative to the untreated check plants is then calculated. In the following examples, all treatments were sprayed at […] spray volume in 10% isopropanol solution to normalise foliar retention: Azoxystrobin;—Quadris SC250, Isopyrazam;—SC250, Cyproconazole: —Alto SL100, Chlorothalonil; Bravo SC720
Puccinia recondita f. Sp. Tritici/Wheat/Preventative (Brown Rust on Wheat)->PUCCTRZ/ff-pr-S:
2-week old wheat plants cv. Arina are sprayed in a spray chamber with the formulated test compound diluted in water. The test plants are inoculated by spraying them with a spore suspension one day after application. After an incubation period of 1 day at 20° C. and 95% rh, the inoculated test plants are kept at 20° C./18° C. (day/night) and 60% rh in a greenhouse. The percentage leaf area covered by disease is assessed when an appropriate level of disease appears on untreated check plants (12-14 days after application).

[2] = system: Puccinia recondita f. Sp. Tritici; test: Puccinia recondita f. sp. tritici / wheat / curative (brown rust on wheat), PUCCTRZ/ff-cu; design: key: % disease control relative to untreated check plants; settings: 0.20%, average of three replicates
Protocol: as §1
Puccinia recondita f. Sp. Tritici/Wheat/Curative (Brown Rust on Wheat)->PUCCTRZ/ff-cu-S:
2-week old wheat plants cv. Arina are inoculated by spraying them with a spore suspension two days before application. After an incubation period of 1 day at 20° C. and 95% rh followed by 1 day at 20° C. and 60% rh in a greenhouse, the inoculated test plants are sprayed in a spray chamber with the formulated test compound diluted in water. After additional incubation at 20° C./18° C. (day/night) and 60% rh in a greenhouse, the percentage leaf area covered by disease is assessed when an appropriate level of disease appears on untreated check plants (9-12 days after application).

[3] = system: Mycosphaerella graminicola (Septoria tritici); test: Mycosphaerella graminicola (Septoria tritici) / wheat / preventative, SEPTTRZ/ff-pr; settings: Table 3, adjuvant alone, 0.20%, average of three replicates
Protocol: as §1
Mycosphaerella graminicola (Septoria tritici)/Wheat/Preventative (Septoria tritici Leaf Spot on Wheat)->SEPTTRZ/ff-pr-S:
2-week old wheat plants cv. Riband are sprayed in a spray chamber with the formulated test compound diluted in water. The test plants are inoculated by spraying a spore suspension on them one day after application. After an incubation period of 1 day at 22° C./21° C. (day/night) and 95% rh, the inoculated test plants are kept at 22° C./21° C. (day/night) and 70% rh in a greenhouse. Percentage leaf area covered by disease was assessed and efficacy was calculated compare to untreated controls when an appropriate level of disease appears on untreated check plants (16-19 days after application).

Alternaria solani = Alternaria solani / tomato / preventative, ALTELYP/ff-pr; settings: Table 4, adjuvant alone, 0.20%, average of three replicates
Protocol: as §1
Alternaria solani/Tomato/Preventative (Alternaria on Tomato)->ALTELYP/ff-pr-S:
4-week old tomato plants cv. Roter Gnom are sprayed in a spray chamber with the formulated test compound diluted in water. The test plants are inoculated by spraying them with a spore suspension two days after application. The inoculated test plants are incubated at 22/18° C. (day/night) and 95% rh in a greenhouse and the percentage leaf area covered by disease is assessed when an appropriate level of disease appears on untreated check plants (5-7 days after application).

Compound	PUCCTRZ/ff-pr, visual assessment of control ([1]; Table 1, adjuvant alone)	PUCCTRZ/ff-pr, visual assessment of control ([1]; Table 2, adjuvant alone)	PUCCTRZ/ff-pr, visual assessment of control ([1]; Table 3, adjuvant alone)	PUCCTRZ/ff-pr, visual assessment of control ([1]; Table 4, adjuvant alone)	PUCCTRZ/ff-cu, visual assessment of control ([2]; Table 1, adjuvant alone)	PUCCTRZ/ff-cu, visual assessment of control ([2]; Table 2, adjuvant alone)	SEPTTRZ/ff-pr, visual assessment of control [3]	ALTELYP/ff-pr, visual assessment of control (Alternaria solani)
CCCCCCCC/C=C\CCCCCCCC(=O)OC [Methyl oleate, reference compound]	0	0	0	0	0	0	0	0
Nopol-5PO-7EO [Nopol-5PO-7EO (Rhodoclean EFC)]	0	0	0	0	0	0	0	6
Nopol-5PO-9EO [Nopol-5PO-9EO (Rhodoclean MSC)]	0	0	0	0	0	0	15	0
Nopol-5PO-25EO [Nopol-5PO-25EO (Rhodoclean 525)]	0	0	0	0	0	0	7	2
